Measured values taken from article PMC12314070 (Nature Communications, 2025).
Converted amounts (≈) assume the structure as drawn. Positions of bridges follow the written chain, without caps; N, C: chain ends. Non-standard residues stand in square brackets, D forms with d. Residues, ends and D or L forms follow the SMILES beside them. *: point of attachment. X1 = CC[C@H](C)CCCCC(=O)*; Dab = NCC[C@H](N)C(=O)O

Experiments:
[1] = system: A. baumannii BNCC 194496; assay: MIC assay; type: cell-based, Acinetobacter baumannii; conditions: Table 1, Cip^R
[2] = system: A. baumannii BNCC194496-mcr-1; assay: MIC assay; type: cell-based; conditions: Acinetobacter baumannii, BNCC194496MCR1
[3] = system: E. Coli MG1655-mcr-1; assay: Neutropenic thigh infection model; type: in vivo, mice; conditions: colistin resistant E. coli thigh infection, 20 mg/kg once daily s.c.
[4] = system: S. aureus USA 300; assay: MIC assay; type: cell-based, Staphylococcus aureus; conditions: Table 1, Met^R, MDR
[5] = system: S. aureus BNCC 186335; assay: MIC assay; type: cell-based; conditions: Staphylococcus aureus, BNCC186335, Table 1, Azm^R, Pen^R

## CO/N=C(\C(=O)N[C@@H]1C(=O)N2C(C(=O)O)=CCS[C@H]12)c1csc(N)n1 [Ceftizoxime]
[1]
  MIC: 4 µg/mL (≈ 10.4 µM)
[2]
  MIC: 4 µg/mL (≈ 10.4 µM)

## CC[C@H](C)CCCCC(=O)N[C@@H](CCN)C(=O)N[C@H](C(=O)N[C@@H](CCN)C(=O)N[C@H]1CCNC(=O)[C@H]([C@@H](C)O)NC(=O)[C@H](CCN)NC(=O)[C@H](CCN)NC(=O)[C@H](CC(C)C)NC(=O)[C@@H](CC(C)C)NC(=O)[C@H](CCN)NC1=O)[C@@H](C)O [Colistin] (X1-[Dab]T[Dab][Dab][Dab][dL]L[Dab][Dab]T; lactam 4-C; N-terminus assumed)
[3]
  reduction of bacterial burden: no activity

## COc1cccc(OC)c1C(=O)N[C@@H]1C(=O)N2[C@@H]1SC(C)(C)[C@@H]2C(=O)O [Methicillin]
[4]
  MIC: >64 µg/mL

## CN[C@H](CC(C)C)C(=O)N[C@H]1C(=O)N[C@@H](CC(N)=O)C(=O)N[C@H]2C(=O)N[C@H]3C(=O)N[C@H](C(=O)N[C@H](C(=O)O)c4cc(O)cc(O)c4-c4cc3ccc4O)[C@H](O)c3ccc(c(Cl)c3)Oc3cc2cc(c3O[C@@H]2O[C@H](CO)[C@@H](O)[C@H](O)[C@H]2O[C@H]2C[C@](C)(N)[C@H](O)[C@H](C)O2)Oc2ccc(cc2Cl)[C@H]1O [Vancomycin]
[4]
  MIC: 1 µg/mL (≈ 0.69 µM)
[5]
  MIC: 0.5 µg/mL (≈ 0.345 µM)
